Data as given in ChEMBL document CHEMBL4052667 (Bioorg Med Chem, 2017).

Experiments:
[1] = tested on: MCF-10A; test: Antiproliferative activity against human MCF10A cells after 72 hrs by MTT assay; format: cell-based
[2] = molecular target: Poly [ADP-ribose] polymerase 1 (Homo sapiens, UniProt P09874); test: Inhibition of recombinant full length human N-terminal GST-tagged PARP1 expressed in baculovirus infected Sf9 cells using biotinylated substrate after 1 hr by UV/Vis spectrophotometric analysis
Chain of Poly [ADP-ribose] polymerase 1 (P09874 whole entry, the tested form may be a part): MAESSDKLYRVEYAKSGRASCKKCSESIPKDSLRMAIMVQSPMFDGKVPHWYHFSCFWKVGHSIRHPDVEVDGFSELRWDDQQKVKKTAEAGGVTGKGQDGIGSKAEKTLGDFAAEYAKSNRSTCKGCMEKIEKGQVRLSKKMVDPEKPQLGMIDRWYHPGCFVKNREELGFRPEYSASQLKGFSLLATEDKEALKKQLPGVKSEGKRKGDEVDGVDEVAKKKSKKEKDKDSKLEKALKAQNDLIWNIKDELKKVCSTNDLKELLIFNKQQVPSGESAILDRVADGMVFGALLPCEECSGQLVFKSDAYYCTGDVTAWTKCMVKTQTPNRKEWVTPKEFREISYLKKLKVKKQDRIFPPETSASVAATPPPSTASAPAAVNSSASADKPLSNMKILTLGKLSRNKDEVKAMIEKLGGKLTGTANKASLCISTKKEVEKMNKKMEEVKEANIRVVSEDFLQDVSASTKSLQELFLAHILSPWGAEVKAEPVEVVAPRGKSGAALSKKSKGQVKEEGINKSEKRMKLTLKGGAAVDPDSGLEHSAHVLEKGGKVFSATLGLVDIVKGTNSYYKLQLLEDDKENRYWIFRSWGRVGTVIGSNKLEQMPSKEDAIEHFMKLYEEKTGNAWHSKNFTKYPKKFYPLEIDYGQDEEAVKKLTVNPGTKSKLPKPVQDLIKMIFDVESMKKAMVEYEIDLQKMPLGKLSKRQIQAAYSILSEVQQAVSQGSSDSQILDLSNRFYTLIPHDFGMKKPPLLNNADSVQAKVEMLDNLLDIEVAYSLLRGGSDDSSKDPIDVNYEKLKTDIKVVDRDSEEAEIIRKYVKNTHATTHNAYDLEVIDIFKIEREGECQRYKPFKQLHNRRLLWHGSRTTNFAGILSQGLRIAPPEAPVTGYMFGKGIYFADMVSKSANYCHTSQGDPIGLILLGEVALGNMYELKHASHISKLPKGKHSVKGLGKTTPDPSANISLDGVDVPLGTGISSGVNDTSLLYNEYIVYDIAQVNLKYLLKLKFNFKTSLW

[3] = molecular target: Poly [ADP-ribose] polymerase 2 (Homo sapiens, UniProt Q9UGN5); test: Inhibition of recombinant human N-terminal GST-tagged PARP2 (2 to 583 residues) expressed in baculovirus infected Sf9 cells using biotinylated substrate after 1 hr by UV/Vis spectrophotometric analysis
Chain of Poly [ADP-ribose] polymerase 2 (Q9UGN5 whole entry, the tested form may be a part): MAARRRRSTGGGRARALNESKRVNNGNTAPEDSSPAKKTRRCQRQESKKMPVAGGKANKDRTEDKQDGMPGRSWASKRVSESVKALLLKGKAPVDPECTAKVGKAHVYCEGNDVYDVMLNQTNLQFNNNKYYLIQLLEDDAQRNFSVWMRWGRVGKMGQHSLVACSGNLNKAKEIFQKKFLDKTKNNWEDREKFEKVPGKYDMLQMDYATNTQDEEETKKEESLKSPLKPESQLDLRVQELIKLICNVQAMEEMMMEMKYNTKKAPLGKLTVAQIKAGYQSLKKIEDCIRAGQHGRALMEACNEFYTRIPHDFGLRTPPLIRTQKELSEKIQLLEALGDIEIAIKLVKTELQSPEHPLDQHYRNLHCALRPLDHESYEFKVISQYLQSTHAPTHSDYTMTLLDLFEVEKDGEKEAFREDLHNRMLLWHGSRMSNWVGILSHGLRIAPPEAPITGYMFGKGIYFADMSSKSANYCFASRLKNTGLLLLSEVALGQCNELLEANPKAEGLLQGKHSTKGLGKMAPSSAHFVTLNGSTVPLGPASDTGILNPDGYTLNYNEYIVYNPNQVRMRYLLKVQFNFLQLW

[4] = molecular target: Histone deacetylase 1 (Homo sapiens, UniProt Q13547); test: Inhibition of HDAC1 (unknown origin) using acetylated peptide substrate preincubated for 15 mins followed by substrate addition measured after 60 mins by fluorescence analysis
Chain of Histone deacetylase 1 (Q13547 whole entry): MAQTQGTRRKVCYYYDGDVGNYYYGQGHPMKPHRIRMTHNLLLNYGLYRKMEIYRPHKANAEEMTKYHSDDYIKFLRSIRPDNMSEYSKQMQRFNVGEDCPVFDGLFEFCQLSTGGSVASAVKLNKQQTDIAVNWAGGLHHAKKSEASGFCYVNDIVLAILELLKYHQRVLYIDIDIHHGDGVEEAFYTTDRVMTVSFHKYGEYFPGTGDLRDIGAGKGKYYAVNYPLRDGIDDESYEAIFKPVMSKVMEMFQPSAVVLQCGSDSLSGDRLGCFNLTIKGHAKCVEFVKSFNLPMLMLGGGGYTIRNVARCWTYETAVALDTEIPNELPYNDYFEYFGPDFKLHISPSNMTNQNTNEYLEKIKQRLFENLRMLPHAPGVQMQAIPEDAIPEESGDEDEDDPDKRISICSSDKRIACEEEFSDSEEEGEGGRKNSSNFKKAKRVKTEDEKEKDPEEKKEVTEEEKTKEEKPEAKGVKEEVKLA

[5] = molecular target: T1, Protein deacetylase HDAC6 (Homo sapiens, UniProt Q9UBN7); test: Inhibition of HDAC6 (unknown origin) using acetylated peptide substrate preincubated for 15 mins followed by substrate addition measured after 60 mins by fluorescence analysis
T1 sequence (Q9UBN7 whole entry): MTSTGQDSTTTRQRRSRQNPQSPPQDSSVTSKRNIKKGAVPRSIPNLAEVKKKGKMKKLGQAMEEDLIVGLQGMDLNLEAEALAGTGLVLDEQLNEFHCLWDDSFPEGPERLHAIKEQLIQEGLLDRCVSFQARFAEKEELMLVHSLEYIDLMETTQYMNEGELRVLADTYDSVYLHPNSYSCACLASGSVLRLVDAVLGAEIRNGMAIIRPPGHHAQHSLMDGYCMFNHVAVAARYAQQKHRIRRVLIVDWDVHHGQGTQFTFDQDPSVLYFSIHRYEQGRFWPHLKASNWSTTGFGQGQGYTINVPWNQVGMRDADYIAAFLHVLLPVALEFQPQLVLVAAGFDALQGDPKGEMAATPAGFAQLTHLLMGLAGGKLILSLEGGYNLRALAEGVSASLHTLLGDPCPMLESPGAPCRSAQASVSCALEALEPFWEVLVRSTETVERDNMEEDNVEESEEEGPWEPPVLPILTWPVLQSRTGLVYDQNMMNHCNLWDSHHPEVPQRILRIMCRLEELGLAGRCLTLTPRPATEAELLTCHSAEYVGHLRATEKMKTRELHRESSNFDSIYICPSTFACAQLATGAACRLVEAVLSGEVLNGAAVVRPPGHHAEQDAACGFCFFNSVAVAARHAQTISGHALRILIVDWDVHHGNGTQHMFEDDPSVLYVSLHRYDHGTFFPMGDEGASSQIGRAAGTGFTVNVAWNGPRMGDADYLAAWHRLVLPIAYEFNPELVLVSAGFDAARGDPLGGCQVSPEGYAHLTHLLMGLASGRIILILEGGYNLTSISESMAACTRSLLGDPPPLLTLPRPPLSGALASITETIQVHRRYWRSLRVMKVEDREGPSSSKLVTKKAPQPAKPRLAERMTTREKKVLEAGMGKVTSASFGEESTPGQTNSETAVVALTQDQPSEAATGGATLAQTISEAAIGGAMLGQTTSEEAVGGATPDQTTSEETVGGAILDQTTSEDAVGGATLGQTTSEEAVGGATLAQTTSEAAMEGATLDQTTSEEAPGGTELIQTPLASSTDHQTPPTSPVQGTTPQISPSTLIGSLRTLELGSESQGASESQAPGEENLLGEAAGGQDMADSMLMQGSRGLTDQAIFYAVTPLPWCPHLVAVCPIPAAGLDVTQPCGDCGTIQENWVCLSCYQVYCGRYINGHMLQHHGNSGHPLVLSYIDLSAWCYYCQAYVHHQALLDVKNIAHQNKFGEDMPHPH

[6] = tested on: T47D; test: Antiproliferative activity against human T47D cells after 72 hrs by MTT assay; format: functional, cell-based
[7] = tested on: MCF7; test: Antiproliferative activity against human MCF7 cells after 72 hrs by MTT assay; format: functional, cell-based; details: MCF7, 72 h
[8] = tested on: MDA-MB-231; test: Antiproliferative activity against human MDA-MB-231 cells after 72 hrs by MTT assay; format: functional, cell-based; details: MDA-MB-231, 72 h
[9] = tested on: HCC827; test: Antiproliferative activity against human HCC827 cells after 72 hrs by MTT assay; format: functional, cell-based; details: HCC827, 72 h
[10] = tested on: HeLa; test: Antiproliferative activity against human HeLa cells after 72 hrs by MTT assay; format: functional, cell-based
[11] = tested on: K562; test: Antiproliferative activity against human K562 cells after 72 hrs by MTT assay; format: functional, cell-based; details: K562, 72 h
[12] = tested on: U-937; test: Antiproliferative activity against human U937 cells after 72 hrs by MTT assay; format: functional, cell-based; details: U-937, 72 h
[13] = tested on: MDA-MB-231; test: Antiproliferative activity against human MDA-MB-231 cells after 5 days by MTT assay; format: functional, cell-based; details: MDA-MB-231, 120 h
[14] = Antiproliferative activity against human MCF10A cells at less than 50 uM after 72 hrs by MTT assay relative to control; format: cell-based, MCF-10A
[15] = species on record: Homo sapiens; test: Selectivity ratio of IC50 for HDAC1 (unknown origin) to IC50 for HDAC6 (unknown origin)
[16] = Safety index, ratio of compound IC50 to SAHA IC50 for human MCF10A cells; format: ADME, cell-based, MCF-10A; details: read-out: Ratio IC50
[17] = tested on: Raji; test: Antiproliferative activity against human Raji cells after 3 days by MTT assay; format: functional, cell-based; details: 72 h
[18] = tested on: HCC1937; test: Antiproliferative activity against human HCC1937 cells after 3 days by MTT assay; format: functional, cell-based; details: HCC1937, 72 h
[19] = tested on: Raji; test: Potency index, ratio of SAHA IC50 to compound IC50 for human Raji cells; format: functional
[20] = tested on: MDA-MB-231; test: Induction of apoptosis in human MDA-MB-231 cells assessed as early apoptotic cells at 2.5 uM after 48 hrs by Annexin V-FITC/propidium iodide staining based flow cytometry (reference value: 1.27%); format: functional
[21] = tested on: MDA-MB-231; test: Induction of apoptosis in human MDA-MB-231 cells assessed as late apoptotic cells at 2.5 uM after 48 hrs by Annexin V-FITC/propidium iodide staining based flow cytometry (reference value: 3.82%); format: functional
[22] = tested on: MDA-MB-231; test: Induction of apoptosis in human MDA-MB-231 cells assessed as necrotic cells at 2.5 uM after 48 hrs by Annexin V-FITC/propidium iodide staining based flow cytometry (reference value: 0.024%); format: functional
[23] = tested on: MDA-MB-231; test: Induction of apoptosis in human MDA-MB-231 cells assessed as viable cells at 2.5 uM after 48 hrs by Annexin V-FITC/propidium iodide staining based flow cytometry (reference value: 94.9%); format: functional; details: MDA-MB-231, 48 h, read-out: Activity
[24] = tested on: MDA-MB-231; test: Induction of apoptosis in human MDA-MB-231 cells assessed as early apoptotic cells at 5 uM after 48 hrs by Annexin V-FITC/propidium iodide staining based flow cytometry (reference value: 1.27%); format: functional
[25] = tested on: MDA-MB-231; test: Induction of apoptosis in human MDA-MB-231 cells assessed as late apoptotic cells at 5 uM after 48 hrs by Annexin V-FITC/propidium iodide staining based flow cytometry (reference value: 3.82%); format: functional
[26] = tested on: MDA-MB-231; test: Induction of apoptosis in human MDA-MB-231 cells assessed as necrotic cells at 5 uM after 48 hrs by Annexin V-FITC/propidium iodide staining based flow cytometry (reference value: 0.024%); format: functional
[27] = tested on: MDA-MB-231; test: Induction of apoptosis in human MDA-MB-231 cells assessed as viable cells at 5 uM after 48 hrs by Annexin V-FITC/propidium iodide staining based flow cytometry (reference value: 94.9%); format: functional; details: MDA-MB-231, 48 h, read-out: Activity
[28] = tested on: MDA-MB-231; test: Induction of apoptosis in human MDA-MB-231 cells assessed as early apoptotic cells at 10 uM after 48 hrs by Annexin V-FITC/propidium iodide staining based flow cytometry (reference value: 1.27%); format: functional
[29] = tested on: MDA-MB-231; test: Induction of apoptosis in human MDA-MB-231 cells assessed as late apoptotic cells at 10 uM after 48 hrs by Annexin V-FITC/propidium iodide staining based flow cytometry (reference value: 3.82%); format: functional
[30] = tested on: MDA-MB-231; test: Induction of apoptosis in human MDA-MB-231 cells assessed as necrotic cells at 10 uM after 48 hrs by Annexin V-FITC/propidium iodide staining based flow cytometry (reference value: 0.024%); format: functional
[31] = tested on: MDA-MB-231; test: Induction of apoptosis in human MDA-MB-231 cells assessed as viable cells at 10 uM after 48 hrs by Annexin V-FITC/propidium iodide staining based flow cytometry (reference value: 94.9%); format: functional; details: MDA-MB-231, 48 h, read-out: Activity
[32] = tested on: MDA-MB-231; test: Induction of apoptosis in human MDA-MB-231 cells after 48 hrs by Annexin V-FITC/propidium iodide staining based flow cytometry; format: functional, cell-based

Row | Compound | IC50 [1] [µM] | IC50 [2] [µM] | IC50 [3] [µM] | IC50 [4] [µM] | IC50 [5] [µM] | IC50 [6] [µM] | IC50 [7] [µM] | IC50 [8] [µM] | IC50 [9] [µM] | IC50 [10] [µM] | IC50 [11] [µM] | IC50 [12] [µM] | IC50 [13] [µM] | inhibition at 72 h [14] [%] | IC50 [17] [µM] | IC50 [18] [µM] | also measured
1 | O=C(CCCCCCC(=O)Nc1ccccc1)NO [VORINOSTAT] | 2.11 | – | – | – | – | – | – | – | – | – | – | – | – | – | – | – | –
2 | O=C(NO)c1ccc(CN2CCN(C(=O)c3cc(Cc4n[nH]c(=O)c5ccccc45)ccc3F)CC2)cc1 | > 50 | 0.00616 | 0.0315 | 0.503 | 0.0167 | > 50 | 24.1 | 33.2 | 24.1 | > 50 | 43.3 | 20.5 | 18.3 | 20 to 30 | – | – | Ratio IC50 [15]: 30
3 | O=C(/C=C/c1ccc(CN2CCN(C(=O)c3cc(Cc4n[nH]c(=O)c5ccccc45)ccc3F)CC2)cc1)NO | 17.4 | 0.015 | 0.00253 | 0.0382 | 0.0102 | 4.85 | 8.08 | 2.68 | 2.96 | 6.49 | 7.58 | 3.88 | 0.94 | – | 0.81 | 0.45 | selectivity ratio [16]: 8.2; Ratio IC50 [19]: 12; Activity [20]: 6.01%; Activity [21]: 5.56%; Activity [22]: 0.34%; viability at 2.5 µM [23]: 88.1%; Activity [24]: 11.9%; Activity [25]: 7.2%; Activity [26]: 0.634%; viability at 5 µM [27]: 80.2%; Activity [28]: 35.2%; Activity [29]: 40.8%; Activity [30]: 1.77%; viability at 10 µM [31]: 22.3%; Activity [32]: Dose-dependent effect
4 | O=C(c1cc(Cc2n[nH]c(=O)c3ccccc23)ccc1F)N1CCN(C(=O)C2CC2)CC1 [OLAPARIB] | > 50 | – | – | – | – | > 50 | 35.2 | 39.5 | > 50 | > 50 | > 50 | 21.8 | 7.92 | – | > 50 | 8.65 | –
5 | O=C(Cc1ccc(CN2CCN(C(=O)c3cc(Cc4n[nH]c(=O)c5ccccc45)ccc3F)CC2)cc1)NO | > 50 | 0.0204 | 0.0491 | 0.912 | 0.129 | > 50 | 41.8 | 57.9 | 32.1 | > 50 | > 50 | 31 | 35.4 | 20 to 30 | – | – | –
